Measured values published in patent publication US9023483B2, “Wood preservative compositions useful for treating copper-tolerant fungi” (Arch Timber Protection Limited, priority 2010, dated 2015).

System: Serpula himantioides strain ATCC 64894
Test: EN 113 wood block decay test, Serpula himantioides, 16 weeks
Type: cell-based
Text: Five replicates were made per each treatment.
As shown in the above tables, the copper composition contains about 9% by weight copper, while both of the azole compositions contain about 10% by weight azole. The DQA cation was applied to the wood as a solution of 50 weight percent didecyldimethyl ammonium carbonate (DDACarbonate).
The wood samples were exposed for 16 weeks.

For “didecyldimethyl ammonium carbonate [DDACarbonate]”, which “16 weeks of exposure Average weight loss % of untreated weight loss” value (Cu retention 0, DDACarbonate retention 0.25 Kg/m^3, 16 weeks) is on record?
Its value is 84%.

And the “16 weeks of exposure Average weight loss % of untreated weight loss” value (Cu retention 0, DDACarbonate retention 0.5 Kg/m^3, 16 weeks)?
Its value is 67%.

And the “protection of wood against decay by Serpula himantioides (in words)” value (summary of the decay tests, 16 weeks)?
The value was “relatively little protection”.
